This note sets out measurements from patent US20200205406A1, “MICROBIOCIDAL PHENYLAMIDINE DERIVATIVES WITH IMPROVED PLANT SAFETY PROPERTIES” (SYNGENTA PARTICIPATIONS AG, priority 2017, published 2020).

SMILES strings stand for the structures.

Usually melting point stands for the temperature, or range, at which the solid turns liquid. The compound `CCN(C)C=Nc1cc(OC)c(Oc2ccccc2)cc1C` had a melting point of 59 to 60 °C.
